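In this assay, cells in 96-well plates receive the compound at five concentrations for 48 hours. Endpoints are linearly interpolated between the surrounding concentrations. GI50 marks 50% less growth.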 The source made the active and inactive calls. No stated cut-off is given here; in the data, active = GI50 up to about 1.1 µM and inactive = higher.
Experiments:
Test in all cases: DTP human tumour cell line panel, 48 h
786-0 = tested on: 786-0
A498 = tested on: A498
A549 = tested on: A549
ACHN = tested on: ACHN
CCRF-CEM = tested on: CCRF-CEM
COLO 205 = tested on: COLO 205
DLD-1 = tested on: DLD-1
DMS-114 = tested on: DMS-114
DMS-273 = tested on: DMS-273
EKVX = tested on: EKVX
HCC 2998 = tested on: HCC 2998
HCT-15 = tested on: HCT-15
HT-29 = tested on: HT-29
IGROV-1 = tested on: IGROV-1
K562 = tested on: K562
KM12 = tested on: KM12
LOX IMVI = tested on: LOX IMVI
LXFL 529 = tested on: LXFL 529
M14 = tested on: M14
M19-MEL = tested on: M19-MEL
MOLT-4 = tested on: MOLT-4
Malme-3M = tested on: Malme-3M
NCI-H23 = tested on: NCI-H23
NCI-H460 = tested on: NCI-H460
OVCAR-3 = tested on: OVCAR-3
OVCAR-4 = tested on: OVCAR-4
OVCAR-8 = tested on: OVCAR-8
RPMI-8226 = tested on: RPMI-8226
RXF 393 = tested on: RXF 393
RXF 631 = tested on: RXF 631
SF-268 = tested on: SF-268
SF-295 = tested on: SF-295
SF-539 = tested on: SF-539
SK-MEL-28 = tested on: SK-MEL-28
SK-MEL-5 = tested on: SK-MEL-5
SK-OV-3 = tested on: SK-OV-3
SN12C = tested on: SN12C
SNB-75 = tested on: SNB-75
SNB-78 = tested on: SNB-78
SR = tested on: SR
SW-620 = tested on: SW-620
TK-10 = tested on: TK-10
U-251 = tested on: U-251
UACC-62 = tested on: UACC-62
XF498 = tested on: XF498
CAKI-1 = tested on: CAKI-1
HCT-116 = tested on: HCT-116
HL-60 = tested on: HL-60
HOP-62 = tested on: HOP-62
HOP-92 = tested on: HOP-92
KM-20L2 = tested on: KM-20L2
NCI-H226 = tested on: NCI-H226
NCI-H522 = tested on: NCI-H522
OVCAR-5 = tested on: OVCAR-5
SK-MEL-2 = tested on: SK-MEL-2
SNB-19 = tested on: SNB-19
UACC-257 = tested on: UACC-257
UO-31 = tested on: UO-31

O=C1C2c3[nH]c4ccccc4c3C3CCCCCCC3C2C(=O)N1c1ccccc1 (centres undefined)
GI50 (786-0): 8.67 µM (inactive) | GI50 (A498): 15.5 µM (inactive) | GI50 (A549): 8.65 µM (inactive) | GI50 (ACHN): 8.24 µM (inactive) | GI50 (CCRF-CEM): 10.2 µM (inactive) | GI50 (COLO 205): 7.64 µM (inactive) | GI50 (DLD-1): > 10 µM (inactive) | GI50 (DMS-114): 4.71 µM (inactive) | GI50 (DMS-273): 11.1 µM (inactive) | GI50 (EKVX): 24.9 µM (inactive) | GI50 (HCC 2998): 12.3 µM (inactive) | GI50 (HCT-15): 22.3 µM | GI50 (HT-29): 19.9 µM (inactive) | GI50 (IGROV-1): > 10 µM (inactive) | GI50 (K562): 4.52 µM (inactive) | GI50 (KM12): 33.6 µM (inactive) | GI50 (LOX IMVI): 5 µM (inactive) | GI50 (LXFL 529): 12.9 µM (inactive) | GI50 (M14): 6.85 µM (inactive) | GI50 (M19-MEL): 10.9 µM (inactive) | GI50 (MOLT-4): > 10 µM (inactive) | GI50 (Malme-3M): 3.33 µM (inactive) | GI50 (NCI-H23): 21 µM (inactive) | GI50 (NCI-H460): 4.91 µM (inactive) | GI50 (OVCAR-3): 4.35 µM (inactive) | GI50 (OVCAR-4): 3.87 µM (inactive) | GI50 (OVCAR-8): 4.32 µM (inactive) | GI50 (RPMI-8226): 13.4 µM (inactive) | GI50 (RXF 393): 7.74 µM (inactive) | GI50 (RXF 631): 4.71 µM (inactive) | GI50 (SF-268): 21.6 µM (inactive) | GI50 (SF-295): 2.91 µM (inactive) | GI50 (SF-539): 12 µM (inactive) | GI50 (SK-MEL-28): 14.6 µM (inactive) | GI50 (SK-MEL-5): 33 µM (inactive) | GI50 (SK-OV-3): 2.44 µM (inactive) | GI50 (SN12C): 6.03 µM (inactive) | GI50 (SNB-75): 2.23 µM (inactive) | GI50 (SNB-78): 13.2 µM (inactive) | GI50 (SR): 14.9 µM (inactive) | GI50 (SW-620): 8.61 µM (inactive) | GI50 (TK-10): 12 µM (inactive) | GI50 (U-251): 4.46 µM (inactive) | GI50 (UACC-62): 32.9 µM (inactive) | GI50 (XF498): 1.92 µM (inactive)

COc1ccc(C2=NC(CO)[C@H](c3ccccc3)O2)cc1OC (some centres undefined)
GI50 (786-0): > 100 µM (inactive) | GI50 (A498): > 100 µM (inactive) | GI50 (A549): > 100 µM (inactive) | GI50 (ACHN): > 100 µM (inactive) | GI50 (CAKI-1): > 100 µM (inactive) | GI50 (CCRF-CEM): > 100 µM (inactive) | GI50 (COLO 205): > 100 µM (inactive) | GI50 (DLD-1): 78 µM (inactive) | GI50 (DMS-114): > 100 µM (inactive) | GI50 (DMS-273): > 100 µM (inactive) | GI50 (HCC 2998): > 100 µM (inactive) | GI50 (HCT-116): > 100 µM (inactive) | GI50 (HCT-15): > 100 µM | GI50 (HL-60): > 100 µM (inactive) | GI50 (HOP-62): > 100 µM (inactive) | GI50 (HOP-92): > 100 µM (inactive) | GI50 (HT-29): > 100 µM (inactive) | GI50 (IGROV-1): > 100 µM (inactive) | GI50 (K562): > 100 µM (inactive) | GI50 (KM-20L2): > 100 µM (inactive) | GI50 (KM12): > 100 µM (inactive) | GI50 (LOX IMVI): > 100 µM (inactive) | GI50 (LXFL 529): > 100 µM (inactive) | GI50 (M14): > 100 µM (inactive) | GI50 (M19-MEL): > 100 µM (inactive) | GI50 (MOLT-4): > 100 µM (inactive) | GI50 (Malme-3M): > 100 µM (inactive) | GI50 (NCI-H226): > 100 µM (inactive) | GI50 (NCI-H460): > 100 µM (inactive) | GI50 (NCI-H522): > 100 µM (inactive) | GI50 (OVCAR-3): > 100 µM (inactive) | GI50 (OVCAR-4): > 100 µM (inactive) | GI50 (OVCAR-5): > 100 µM (inactive) | GI50 (OVCAR-8): > 100 µM (inactive) | GI50 (RXF 631): > 100 µM (inactive) | GI50 (SF-268): > 100 µM (inactive) | GI50 (SF-295): > 100 µM (inactive) | GI50 (SF-539): > 100 µM (inactive) | GI50 (SK-MEL-2): > 100 µM (inactive) | GI50 (SK-MEL-5): > 100 µM (inactive) | GI50 (SK-OV-3): 96.4 µM (inactive) | GI50 (SN12C): > 100 µM (inactive) | GI50 (SNB-19): > 100 µM (inactive) | GI50 (SNB-75): > 100 µM (inactive) | GI50 (SW-620): > 100 µM (inactive) | GI50 (UACC-257): > 100 µM (inactive) | GI50 (UACC-62): 53.6 µM (inactive) | GI50 (UO-31): > 100 µM (inactive) | GI50 (XF498): > 100 µM (inactive)

Reference: ChEMBL document CHEMBL1201862, “PubChem BioAssay data set” (2004)
